Experimental data from patent US20030113267A1, “Colon contrast enhanced imaging” (priority 1999, published 2003).

Assays:
[1] = cited from earlier work
[2] = in man; cited from earlier work
[3] = MRI signal intensity over time in liver parenchyma, healthy volunteers; type: in vivo, human; conditions: average of six healthy volunteers, 0.1 mmol/kg i.v., FIG. 1
Experimental: (§1) The trial was conducted in six healthy volunteers aged between 22 and 29 years. The contrast agent used was Gd-BOPTA meglumine salt (MultiHance™), administered intravenously at a dose of 0.1 mmol/kg of body weight. The successive recording of images of the abdomen was performed 1, 12, 24, 36, 48, 70 and 105 hours after administration of the agent using the following 3D angio-sequence: 3D FLASH; TR 4.6 ms; TE 1.8 ms; α 50° C.; rect. FOV 390 mm (6/8); Ma: 215×512; acq 28 s; slab thickness 120 mm; 42 sections. Three volunteers were re-tested 14 days after administration of the agent.
(§2) T1-weighted axial images of the liver and abdomen were recorded in addition to the 3D angio-sequences referred to above.
(§3) The visualisation procedure was conducted with an MRI scanner operating at 1.5 Tesla (Magneton Vision Plus, Siemens Medical Systems, Erlangen, Germany) equipped with a phased array body coil.
(§4) Before performing colonography, it was possible to investigate liver function by recording the signal intensity in the liver parenchyma and gall bladder in the first few hours after administration of the contrast agent. […] This seems to be the ideal period for recording three-dimensional MRI colonography.

[4] = MRI signal intensity over time in gall bladder, healthy volunteers; type: in vivo, human
Experimental: as §1, §2, §3, §4

[5] = 3D angiographic MRI colonography in healthy volunteers after intravenous injection; type: in vivo, human
Source text: Description of method of acquisition of MRI images of the luminal part of the colon using the three-dimensional angiography technique in healthy volunteers after intravenous injection of MultiHance™ (Gd-BOPTA meglumine salt).
A three-dimensional angiographic imaging technique was used because it provides advantageous visualisation of large regions of the anatomy, especially when associated with administration of contrast agents which are particularly effective in reducing the T1 relaxation times in standard MRI investigations.
In the trial conducted, the increased contrast in the hepatobiliary system and the gastrointestinal system was obtained with this kind of diagnostic technique, which produced up to 42 images of a three-dimensional volume measuring 40×32×12 cm in a single breath-hold.
as §1, §2, §3
The images were processed with standard MIP software on a dedicated 3D MR workstation (Virtuoso, Siemens Medical System).
No preparation, medication or joint administration of other drugs or other contrast media was performed on the volunteers studied.

## CNC[C@H](O)[C@@H](O)[C@H](O)[C@H](O)CO.CNC[C@H](O)[C@@H](O)[C@H](O)[C@H](O)CO.O=C([O-])CN(CCN(CC(=O)[O-])CC(=O)O)CCN(CC(=O)O)C(COCc1ccccc1)C(=O)[O-].[Gd+3] (centres unmarked) [MultiHance, gadobenate dimeglumine]
[1]
  solubility in water: soluble in water
[2]
  proportion excreted by the biliary route: 2-4%
[3]
  time for signal intensity to be halved in liver parenchyma: ≤ 10 h
[4]; 24 hours after injection of 0.1 mmol/kg BW, FIG. 2
  enhancement within the gallbladder: still intense enhancement
[4]; average of six healthy volunteers, 0.1 mmol/kg i.v., FIG. 1
  half-life of signal intensity in gall bladder: 15 h
[5]; 0.1 mmol/kg i.v.
  time after which a partial increase of intraluminal signal was still detectable: 8 days
[5]; 0.1 mmol/kg i.v., faeces present, no preparation
  homogeneity of contrast in the lumen: homogenous contrast in the lumen
[5]; 24 hours after injection of 0.1 mmol/kg BW, no bowel preparation, FIG. 2
  signal in the colon, 3D MR colonography: Homogenous signal can be seen in all segments of the colon
[5]; all six healthy volunteers, 0.1 mmol/kg i.v., no bowel preparation
  time to intense increase in intraluminal contrast after administration: ≤ 24 h
[5]; in some patients, 0.1 mmol/kg i.v.
  time after administration at which an intense intraluminal signal was still detected in the colon: ≤ 100 h
[5]; intravenous administration, contrast recorded in the colon
  intraluminal contrast after intravenous administration: substantial increase in intraluminal contrast
